Assay results: patent US11352322B2, “Cyclopropyl-amide compounds as dual LSD1/HDAC inhibitors” (Jubilant Epicore LLC, priority 2016, dated 2022)
pEC50, pIC50: −log10 of the molar value. Counter-ions that a name gives are not always drawn. Like-named read-outs stand apart in the source and are kept apart here.

Columns and labels:
[1] = Metabolic stability in liver microsomes, MLM; conditions: 1 μM, NADPH
Experimental: (§1) The microsomal suspension was prepared by adding liver microsomes to 100 mM potassium phosphate buffer (pH7.4) to give a final protein concentration of 0.5 mg/mL. The stock solution of NCE (10 mM in DMSO) was added to the microsomes to provide a final concentration of 1 μM. […] Samples were vortexed and centrifuged at 5,000 rpm for 10 min to remove proteins. Supernatant were analyzed on LC-MS/MS.

[2] = molecular target: HDAC6 human recombinant enzyme (Homo sapiens (Human), UniProt Q9UBN7); assay: Histone Deacetylase Assay (BPS Biosciences), HDAC6; type: biochemical
Chain of HDAC6 human recombinant enzyme (Q9UBN7 whole entry): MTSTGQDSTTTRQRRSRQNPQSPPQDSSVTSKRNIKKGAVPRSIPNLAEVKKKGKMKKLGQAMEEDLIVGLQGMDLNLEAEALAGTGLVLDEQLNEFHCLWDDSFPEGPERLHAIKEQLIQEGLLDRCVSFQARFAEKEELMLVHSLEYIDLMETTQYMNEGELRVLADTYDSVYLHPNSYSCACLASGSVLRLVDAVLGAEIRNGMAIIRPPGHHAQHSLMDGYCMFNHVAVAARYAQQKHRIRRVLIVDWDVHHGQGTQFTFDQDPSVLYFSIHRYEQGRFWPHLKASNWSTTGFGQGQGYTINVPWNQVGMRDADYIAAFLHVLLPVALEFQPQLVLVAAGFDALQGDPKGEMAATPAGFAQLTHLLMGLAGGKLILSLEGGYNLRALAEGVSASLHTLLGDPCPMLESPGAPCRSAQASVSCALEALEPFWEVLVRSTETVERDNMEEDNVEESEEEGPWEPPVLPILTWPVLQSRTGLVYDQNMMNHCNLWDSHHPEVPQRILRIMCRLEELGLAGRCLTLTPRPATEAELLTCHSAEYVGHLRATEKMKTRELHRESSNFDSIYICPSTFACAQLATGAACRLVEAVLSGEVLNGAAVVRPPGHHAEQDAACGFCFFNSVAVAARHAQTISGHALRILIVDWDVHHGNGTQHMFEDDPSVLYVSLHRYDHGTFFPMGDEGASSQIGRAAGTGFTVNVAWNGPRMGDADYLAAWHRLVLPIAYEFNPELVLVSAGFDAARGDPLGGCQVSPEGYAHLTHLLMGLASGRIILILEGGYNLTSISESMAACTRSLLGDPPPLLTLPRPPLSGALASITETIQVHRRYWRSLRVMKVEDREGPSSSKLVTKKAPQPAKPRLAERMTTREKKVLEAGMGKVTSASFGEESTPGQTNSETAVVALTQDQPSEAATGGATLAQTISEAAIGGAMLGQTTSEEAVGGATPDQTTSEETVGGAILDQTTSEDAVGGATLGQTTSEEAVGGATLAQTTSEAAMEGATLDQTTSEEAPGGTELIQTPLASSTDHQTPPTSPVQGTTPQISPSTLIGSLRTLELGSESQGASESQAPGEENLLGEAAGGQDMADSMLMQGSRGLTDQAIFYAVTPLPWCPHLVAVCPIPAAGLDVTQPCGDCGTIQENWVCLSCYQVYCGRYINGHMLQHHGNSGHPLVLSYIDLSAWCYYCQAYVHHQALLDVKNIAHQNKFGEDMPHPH
Text: Histone Deacetylase Assay (BPS Biosciences)
Histone deacetylase assay was done as per manufacturer's instructions.

[3] = molecular target: LSD1 (Homo sapiens (Human), UniProt O60341); assay: TR-FRET Assay for LSD1
Experimental: TR-FRET Assay for LSD1 (Perkin Elmer)
Tranylcypromine (TCP), LSD1 inhibitor was procured from Selleckchem. […] Stop Solution containing 300 μM tranylcypromine in 1× LANCE Detection Buffer was added to the wells and incubated for 5 min at RT. Then, Detection mix containing 2 nM Eu-Ab and 50 nM ULight-Streptavidin in 1× LANCE Detection Buffer was prepared and added to the reaction mix. This mixture was incubated for 1 hour at room temperature.

[4] = Metabolic stability in liver microsomes, HLM; conditions: 1 μM, NADPH
Experimental: as §1

[5] = test system: MM1S; assay: Anticancer activity: Alamar Blue assay, MM1S; type: cell-based; conditions: Homo sapiens, MM1.S, read-out: MM1S EC50

| SMILES | Metabolic stability MLM % remaining in 30 min [1] | pIC50 [2] | pIC50 ([3]; read-out: LSD1 IC50) | Metabolic stability HLM % remaining in 30 min [4] | pEC50 [5] | pEC50 ([5]; MM1S cells) | pIC50 [3] |
| --- | --- | --- | --- | --- | --- | --- | --- |
| Cc1noc(C)c1-c1ccc(C2CC2NCC2CCN(Cc3ccc(C(=O)Nc4ccccc4N)cc3)CC2)cc1 (stereo not shown) [Example 143, N-(2-aminophenyl)-4-((4-(((2-(4-(3,5-dimethylisoxazol-4-yl)phenyl)cyclopropyl)amino)methyl)piperidin-1-yl)methyl)benzamide TFA Salt] | 50% | < 5.00 | 7.43 | 37% | 6.99 | – | – |
| Nc1ccc(F)cc1NC(=O)c1ccc(CCCN2CCC(CNC3CC3c3ccc(F)cc3)CC2)cc1 (stereo not shown) [Example 132, N-(2-amino-5-fluorophenyl)-4-(3-(4-(((2-(4-fluorophenyl)cyclopropyl)amino)methyl)piperidin-1-yl)propyl)benzamide TFA Salt] | 80% | < 5.00 | 8.30 | 81% | 7.68 | – | – |
| O=C(NO)c1cnc(NCCN2CCC(CNC3CC3c3ccc(F)cc3)CC2)nc1 (stereo not shown) [Example 102, 2-((2-(4-(((2-(4-fluorophenyl)cyclopropyl)amino)methyl)piperidin-1-yl)ethyl)amino)-N-hydroxypyrimidine-5-carboxamide TFA Salt] | >99/>99% | 7.12 | 7.66 | >99/>99% | 8.30 | – | – |
| Cn1cc(-c2ccc(C3CC3NCC3CCN(CCCc4ccc(C(=O)NO)cc4)CC3)cc2)cn1 (stereo not shown) [Example 62, N-hydroxy-4-(3-(4-(((2-(4-(1-methyl-1H-pyrazol-4-yl)phenyl)cyclopropyl)amino)methyl)piperidin-1-yl)propyl) benzamide TFA Salt] | 66% | 7.18 | 7.37 | 77% | – | 8.15 | – |
| O=C(NO)c1coc(CCCN2CCC(CNC3CC3c3ccccc3)CC2)n1.O=C(O)C(F)(F)F (stereo not shown) [Example 113, N-hydroxy-2-(3-(4-(((2-phenylcyclopropyl)amino)methyl)piperidin-1-yl)propyl)oxazole-4-carboxamide TFA Salt] | 76% | < 5.00 | – | 78% | – | < 5.00 | 7.59 |
